Reference: US5411985A, “Gamma-pyrone-3-acetic acid as an inhibitor or interleukin-1 β inventory enzyme” (Merck & Co., Inc., priority 1993, dated 1995)

Columns and labels:
[1] = Solubility of isolated material; type: physicochemical
Experimental: Compound was isolated further by purification using HPLC. Two mL of filtered solution was passed through a C4 radial compression column (25×100 mm, WATERS ASSOCIATES) and an isocratic flow rate of 10 mL per minute of water was used to elute the active compound. A total of 5 runs were performed with fractions being collected at one minute intervals. The fractions were tested for ICE-activity. The active fractions eluted between 9-10 minutes. The ICE-active-rich cuts from each run were pooled and lyophilized. The resulting material appeared to be an oily brown substance that was soluble in water, methanol, and DMSO. Estimates of 7 mg of compound can be isolated from 300 ml of whole broth.

[2] = molecular target: T1, interleukin-1β converting enzyme (ICE) (Homo sapiens, UniProt P29466); test: ICE activity by the procedure of Thornberry et al. (1992); type: biochemical
T1 sequence (P29466 120-297 limits assumed): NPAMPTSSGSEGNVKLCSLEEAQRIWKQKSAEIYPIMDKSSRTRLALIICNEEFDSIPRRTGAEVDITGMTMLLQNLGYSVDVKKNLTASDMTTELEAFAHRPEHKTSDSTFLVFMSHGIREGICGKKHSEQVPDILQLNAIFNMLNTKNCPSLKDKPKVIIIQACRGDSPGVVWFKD
T1 sequence (P29466 317-404 limits assumed): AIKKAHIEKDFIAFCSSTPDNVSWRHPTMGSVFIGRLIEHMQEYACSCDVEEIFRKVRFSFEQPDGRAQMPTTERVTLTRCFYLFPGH
Experimental: Assay for assessing the ICE activity of compound of Formula I
Gamma-pyrone-3-acetic acid was assessed for ICE activity by the procedure of Thomberry, et al (1992) Nature Vol. 356 pp 768-774.

solubility in DMSO ([1]; DMSO): soluble | solubility in methanol ([1]; methanol): soluble | solubility in water ([1]; water): soluble | IC50 ([2]; pH 6.5 and 1 mM DDT): 1.3 µM | IC50 ([2]; pH 7:5 and 1 mM DDT): 4.54 µM
Structure (SMILES): O=C(O)Cc1coccc1=O [Gamma-pyrone-3-acetic acid, gamma-pyrone-3-acetic acid]
